Consider one molecule from US20090233957A1, “(-)-BELOXEPIN AND METHODS FOR ITS SYNTHESIS AND USE” (priority 2008, published 2009).

For series [1] the following is noted: in vivo; cited from earlier work.
Series [2] deals with T1, cloned human 5HT2C receptor (Homo sapiens, UniProt P28335).
T1 construct: expressed in transfected cells; host or cells: CHO cells
T1 sequence (P28335 33-458): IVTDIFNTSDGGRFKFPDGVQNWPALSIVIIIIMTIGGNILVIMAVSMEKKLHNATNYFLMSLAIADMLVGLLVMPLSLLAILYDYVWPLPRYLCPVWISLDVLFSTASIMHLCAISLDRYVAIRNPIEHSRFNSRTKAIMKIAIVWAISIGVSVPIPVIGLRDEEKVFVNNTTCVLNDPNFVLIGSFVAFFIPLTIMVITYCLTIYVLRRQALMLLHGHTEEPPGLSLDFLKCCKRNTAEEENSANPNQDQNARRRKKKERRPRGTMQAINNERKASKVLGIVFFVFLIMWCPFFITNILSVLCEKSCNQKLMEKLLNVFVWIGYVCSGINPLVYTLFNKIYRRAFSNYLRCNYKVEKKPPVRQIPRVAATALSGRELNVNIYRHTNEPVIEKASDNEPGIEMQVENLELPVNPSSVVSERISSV
In words: 5HT2C receptor binding assay, [3H]mesulergine. The note with it: CHO membranes. The method, then: For the 5HT2C receptor binding assay, [^3H]mesulergine (1.0 nM) was incubated for 60 min at 37° C. with membranes prepared from Chinese hamster ovary cells heterologously expressing the cloned human 5-HT2C receptor according to the method of Stam et al., 1994, Eur. J. Pharmacol. 269:339-348. Various concentrations of test compound were added and bound radioactivity was determined by scintillation counting. Non-specific binding was determined in the presence of 10 μM RS102221. The Ki value for the test compound was determined using standard methods.

The test system of series [3] is animal models of depression. To be noted: preclinical; cited from earlier work.
In series [4] the target is T2, human recombinant CYP2D6 (Homo sapiens, UniProt P10635).
T2 construct: purchased BD Bioscience
Description: CYP2D6 inhibition, MAMC substrate. The class given is in vitro ADME. The method, then:
Protocol. […] The source of the enzyme was microsomes containing human recombinant CYP2D6 obtained from BD Bioscience. Conversion of MAMC to 7-hydroxy-4-(aminomethyl)coumarin was measured using a PerkinElmer Fusion with a 390 nm excitation filter and a 460 nm emission filter.

In series [5] the test system is patients hospitalized for depression. To be noted: phase IIA; cited from earlier work.
Series [6] concerns the target T3, cloned human 5HT2A receptor (Homo sapiens, UniProt P28223).
T3 construct: expressed in transfected cells; host or cells: HEK-293 cells
In words: 5HT2A functional assay, intracellular Ca2+ in HEK-293 cells. The class given is cell-based. The method, then:
(§1) Agonist effects at the 5HT2A receptor were assessed by incubation at 22° C. of a series of concentrations of test compound with intact HEK-293 cells heterologously expressing the cloned human 5HT2A receptor and measuring intracellular [Ca^2+] by fluorimetry according to the method of Jerman et al., 2001, Eur. J. Pharmacol. 414:23-30). Antagonist effects were assessed by the ability of a series of concentrations of test compound to block the increase in intracellular [Ca^2+] that occurred in the presence of 3.0 nM serotonin under the same conditions. EC50 and IC50 values were determined using standard methods.

The test system of series [7] is noradrenergic, histaminergic and cholinergic receptors. To be noted: published report; cited from earlier work.
Series [8] deals with T4, cloned human 5HT2B receptor (Homo sapiens, UniProt P41595).
T4 construct: expressed in transfected cells; host or cells: CHO cells
Description: 5HT2B receptor binding assay, [125I]DOI. To be noted: CHO membranes. The procedure:
For the 5HT2B receptor binding assay, [^125I](±)[…] (DOI) (0.2 nM) was incubated for 15 min at 37° C. with membranes prepared from Chinese hamster ovary cells heterologously expressing the cloned human 5HT2B receptor according to the method of Choi et al., 1994, FEBS Lett 352:393-399. Various concentrations of test compound were added and bound radioactivity was determined by scintillation counting. Non-specific binding was determined in the presence of 1.0 μM unlabeled DOI. The Ki value for the test compound was determined using standard methods.

Series [9] concerns human volunteers. The note with it: 25-400 mg, cited from earlier work.
In series [10] the target is T1, cloned human 5HT2C receptor. Description: 5HT2C functional assay, intracellular Ca2+ in CHO cells. The class given is cell-based. The method, then: as §1, with “5HT2C” for “5HT2A”, “CHO” for “HEK-293”, “414:23-30.” for “414:23-30).”
Series [11] concerns the target T4, cloned human 5HT2B receptor. In words: 5HT2B functional assay, intracellular Ca2+ in CHO cells. The class given is cell-based. The method, then: as §1, with “5HT2B” for “5HT2A”, “CHO” for “HEK-293”, “Porter” for “Jerman”, “1991, Brit.” for “2001, Eur.”, “128:13-20.” for “414:23-30).”, “0.3” for “3.0”
Series [12] has as its target T5, cloned human NE transporter (hNET) (Homo sapiens, UniProt P23975).
T5 construct: expressed in transfected cells; host or cells: CHO cells
Description: NE transporter binding assay, [3H]nisoxetine. To be noted: membranes of CHO cells expressing hNET; read-out: NET Ki. The method, then: Protocols. For the NE transporter binding assay, [^3H]nisoxetine (1.0 nM) was incubated with various concentrations of test compounds for 2 hours at 4° C. with membranes prepared from Chinese hamster ovary cells (CHO) cells heterologously expressing the cloned human NE transporter (hNET). Bound radioactivity was determined by scintillation spectroscopy.

For series [13] the following is noted: single doses of 10 to 500 mg; cited from earlier work.
For series [14] the following is noted: cited from earlier work.
Series [15] concerns the target T3, cloned human 5HT2A receptor. Description: 5HT2A receptor binding assay, [3H]ketanserin. To be noted: HEK-293 membranes. The procedure: For the 5HT2A receptor binding assay, [^3H]ketanserin (0.5 nM) was incubated for 60 min at 22° C. with membranes prepared from HEK-293 cells heterologously expressing the cloned human 5-HT2A receptor according to the method of Bonhaus et al., 1995, Brit. J. Pharmacol. 115:622-628. Various concentrations of test compound were added and bound radioactivity was determined by scintillation counting. Non-specific binding was determined in the presence of 1.0 μM unlabeled ketanserin. The Ki value for the test compound was determined using standard methods.

The test system of series [16] is noradrenaline reuptake in synaptosomes from rat and primate brain. To be noted: published reports; cited from earlier work.
Series [17] relates to major depression. To be noted: human, in vivo; cited from earlier work.
For series [18], the target named is T6, 5HT2C receptor (Homo sapiens, UniProt P28335).
T6 sequence (P28335 33-458): T1 sequence (P28335 33-458)
The note with it: published report; cited from earlier work.

Where [19] appears, read: antagonist mode, vs 3.0 nM serotonin.

A value given as a limit tells only on which side of the number the result lay.

T4 sequence (P41595 whole entry): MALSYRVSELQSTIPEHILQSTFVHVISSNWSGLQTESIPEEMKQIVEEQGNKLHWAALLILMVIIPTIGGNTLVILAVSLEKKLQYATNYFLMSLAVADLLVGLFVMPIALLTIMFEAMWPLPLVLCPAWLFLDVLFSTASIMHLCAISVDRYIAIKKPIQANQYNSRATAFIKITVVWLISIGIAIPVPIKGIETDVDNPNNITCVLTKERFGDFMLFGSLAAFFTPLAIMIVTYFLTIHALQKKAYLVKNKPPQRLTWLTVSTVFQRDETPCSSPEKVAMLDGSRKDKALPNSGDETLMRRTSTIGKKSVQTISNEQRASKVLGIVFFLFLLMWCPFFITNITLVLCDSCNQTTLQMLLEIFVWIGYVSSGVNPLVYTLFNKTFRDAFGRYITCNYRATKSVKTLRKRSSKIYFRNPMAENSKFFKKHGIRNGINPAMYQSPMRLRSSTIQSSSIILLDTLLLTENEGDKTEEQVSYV
T3 sequence (P28223 whole entry): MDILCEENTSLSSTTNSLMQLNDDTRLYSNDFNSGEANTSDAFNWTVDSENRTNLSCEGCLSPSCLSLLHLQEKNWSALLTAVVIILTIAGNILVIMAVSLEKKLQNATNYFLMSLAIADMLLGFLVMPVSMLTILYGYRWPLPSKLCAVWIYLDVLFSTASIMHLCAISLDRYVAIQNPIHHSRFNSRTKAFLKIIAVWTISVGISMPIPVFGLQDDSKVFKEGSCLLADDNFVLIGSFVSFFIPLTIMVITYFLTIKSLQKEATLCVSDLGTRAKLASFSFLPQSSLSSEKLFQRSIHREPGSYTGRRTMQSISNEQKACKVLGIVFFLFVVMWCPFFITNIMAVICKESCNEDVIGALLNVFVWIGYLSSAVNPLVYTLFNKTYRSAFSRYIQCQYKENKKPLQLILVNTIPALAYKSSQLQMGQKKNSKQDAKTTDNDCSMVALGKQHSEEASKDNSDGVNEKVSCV
T2 sequence (P10635 whole entry): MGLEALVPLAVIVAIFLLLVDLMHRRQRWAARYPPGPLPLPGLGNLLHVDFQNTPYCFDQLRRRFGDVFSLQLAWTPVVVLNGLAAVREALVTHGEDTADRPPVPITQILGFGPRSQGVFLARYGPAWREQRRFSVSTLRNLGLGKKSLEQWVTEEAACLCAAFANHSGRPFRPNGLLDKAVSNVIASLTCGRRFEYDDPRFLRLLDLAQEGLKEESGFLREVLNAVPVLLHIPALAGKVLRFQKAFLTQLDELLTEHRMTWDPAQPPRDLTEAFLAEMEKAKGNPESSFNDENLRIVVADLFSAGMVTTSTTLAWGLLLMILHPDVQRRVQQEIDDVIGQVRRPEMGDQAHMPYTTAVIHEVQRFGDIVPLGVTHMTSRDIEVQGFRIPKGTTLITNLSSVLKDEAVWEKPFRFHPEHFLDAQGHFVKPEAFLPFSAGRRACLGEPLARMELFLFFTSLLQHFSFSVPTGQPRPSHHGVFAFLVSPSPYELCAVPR
T5 sequence (P23975 whole entry): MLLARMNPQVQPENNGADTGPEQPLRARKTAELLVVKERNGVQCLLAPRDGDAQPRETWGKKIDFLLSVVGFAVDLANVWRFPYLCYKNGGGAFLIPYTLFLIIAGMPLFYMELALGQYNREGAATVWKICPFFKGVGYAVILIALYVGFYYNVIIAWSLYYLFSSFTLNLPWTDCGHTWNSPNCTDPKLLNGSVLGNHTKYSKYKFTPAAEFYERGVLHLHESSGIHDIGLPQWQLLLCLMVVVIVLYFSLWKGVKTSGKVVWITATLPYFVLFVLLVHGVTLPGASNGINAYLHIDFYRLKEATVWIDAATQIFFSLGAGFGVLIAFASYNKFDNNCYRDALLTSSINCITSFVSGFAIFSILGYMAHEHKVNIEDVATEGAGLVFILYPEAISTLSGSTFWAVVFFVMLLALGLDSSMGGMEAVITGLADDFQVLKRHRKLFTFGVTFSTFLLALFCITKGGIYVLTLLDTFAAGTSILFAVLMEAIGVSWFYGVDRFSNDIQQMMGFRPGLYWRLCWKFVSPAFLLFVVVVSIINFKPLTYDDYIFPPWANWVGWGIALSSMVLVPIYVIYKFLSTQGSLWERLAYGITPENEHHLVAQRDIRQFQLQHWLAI

For `Cc1cccc2c1Oc1ccccc1C1(O)CCN(C)CC21` (racemic) [(±)-beloxepin, cis-1,2,3,4,4a,13b-hexahydro-2,10-dimethyldiben-[2,3:6,7]oxepino[4,5c]pyridine-4a-ol]], the logBB in series [1] is on record as 0.82. Also, the Ki in [2] is 830 nM; in series [8], 1000 nM; in series [12], 700 nM; in [15], 440 nM. Moreover, the “antidepressant properties” value in [3] is “offsetting acquired immobility behavior, reserpine-induced hypothermia, and conditioned avoidance behavior”. Further, the “side effects” value in [3] was “did not cause sedation, motor impairment or other untoward side effects”; in [9] it was “No sedation or other side effects were observed”. For the same molecule, the half-maximal inhibitory concentration (IC50) was 536 nM in [4]; 5200 nM in series [6] (setting [19]); greater than 10000 nM in series [10] (setting [19]); greater than 10000 nM in [11] (antagonist mode, vs 0.3 nM serotonin). For the same molecule, in [5], the “fraction of patients with a moderate to good response (HAMD score reduction)” value is “⅔”. Moreover, the “5HT2A functional activity type” value in series [6] is listed as “antagonist”. In addition, the “affinity for noradrenergic, histaminergic and cholinergic receptors” value in series [7] is “no or very weak affinity”. The “effect on REM sleep” value in series [9] (acutely and sub-chronically) is recorded as “dose-dependently prolonged REM latency”. For the same molecule, the “5HT2C functional activity type” value in series [10] was “antagonist”. Besides, in series [11], the “5HT2B functional activity type” value is given as “antagonist”. In addition, the tmax entry in series [13] is listed as “one to four”. The “tmax, steady state” value in series [14] (doses of 50 to 800 mg, healthy subjects) is 1.17 h. Besides, the “adverse effects” value in [14] (healthy volunteers, up to 800 mg/day) is listed as “No important adverse effects were observed”. For the same molecule, the “less affinity for other monoamine carriers (serotonin and dopamine transporters) than for noradrenaline reuptake” value in series [16] is recorded as “greater than 100 fold”. For the same molecule, in [17], the “efficacy in major depression” value is “insufficient efficacy”. For the same molecule, the “affinity for the 5HT2C receptor” value in [18] was “modest affinity”.

Usually Ki stands for the equilibrium dissociation constant of an inhibitor or competing ligand from its target. The IC50 is the concentration needed to halve the response being measured.
